# Data reported in patent EP3731817B1, “PHARMACEUTICAL COMPOSITION OF LENALIDOMIDE PHARMACEUTICALLY ACCEPTABLE ACID ADDITION SALT” (KRKA, d.d., Novo mesto, priority 2017, dated 2019).
# Counter-ions that a name gives are not always drawn.
# What was measured:
# [1] = Stability testing: physical form (disproportionation) monitored by X-ray powder diffraction after storage in vials; type: physicochemical; details: physical form found by XRPD after storage in vials
# Method: The binary mixtures and pharmaceutical compositions were stored in vials at 40°C/75%RH for 1 month or at 50° C 75% RH for 14 days. Disproportionation effect was monitored by X-ray powder diffraction pattern.
# X-ray powder diffraction patterns were obtained by a PANalytical PW3040/60 X'Pert PRO diffractometer using CuKα radiation of 1,541874.
# (§1) Lenalidomide hydrochloride and the all the excipients with respect to the composition were weighed into the glass vial. Gelatine capsule were added into the vials. The vials were then closed with the stopper and gently mixed to form a homogenous mixture. The vials were subjected to the stress conditions.
# as §1, with “hydrochloride in the form of monohydrate form VII” for “hydrochloride”, “vials. Vials” for “vials. The vials”
# The capsules were stored in vials at 40°C/75%RH for 1 month. Physical stability of the samples was monitored by X-ray powder diffraction pattern. As evident from the results, the physical form remains the same, a disproportionation effect was not observed.
# [2] = cited from earlier work
Stability testing 1 month at 40°C/75%RH [1],SMILES,dissociation constant pKa1 ([2]; primary amine group),pKa2 ([2]; secondary amine group)
HCl salt,"Nc1cccc2c1CN(C1CCC(=O)NC1=O)C2=O (stereo not drawn) [API, Lenalidomid HCl·H2O]",,
,"Nc1cccc2c1CN(C1CCC(=O)NC1=O)C2=O (stereo not drawn) [lenalidomide, (3-(4' aminoisoindoline-1'-one)-1-piperidine-2,6-dione)]",2.31,11.6
